Assays:
P. aeruginosa (gram−) = conditions: reported value of antibiotic; cited from earlier work
E. coli (gram−) = conditions: reported value of antibiotic; cited from earlier work
B. subtilis (gram+) = conditions: reported value of antibiotic; cited from earlier work
S. aureus (gram+) = conditions: reported value of antibiotic; cited from earlier work
[1] = test system: C. albicans fungal strain; conditions: reported value of antibiotic; cited from earlier work
SARS-CoV-2 = assay type: cell-based; conditions: 70% concentration, 30 min contact, 22 ± 2° C.

Compound	MIC (P. aeruginosa (gram−)) [µg/mL]	MIC (E. coli (gram−)) [µg/mL]	MIC (B. subtilis (gram+)) [µg/mL]	MIC (S. aureus (gram+)) [µg/mL]	MIC [1] [µg/mL]	Toxicity (highest dilution of the endpoint titer where full (80-100%) cytotoxicity was observed) (Vero E6 cells)	Virus Titer (SARS-CoV-2)	LRV (log reduction value) (SARS-CoV-2; vs virus control 4.3)
gentamycin	4	8	4	10	2.5	–	–	–
CCO [Ethanol]	–	–	–	–	–	None	<0.7 log10 CCID50 of virus per 0.1 mL	>3.6

From patent US20240043618A1, “ANTIMICROBIAL COMPOSITIONS” (priority 2021, published 2024)
